The record followed here is US7795227B2, “Compounds and methods for treating seizure disorders” (Wisconsin Alumni Research Foundation, priority 2004, dated 2010).

Values joined by “and” are separate entries in the source; they are usually repeats but may differ in a detail not shown here. Equal values may be shown once. “Also recorded” adds a separate entry of the source.

In data set [1] the test system is rat hippocampal slices (CA3 synchronized burst discharges). In words: Synchronized bursting induced by elevated [K+]o in hippocampal slices, CA3 extracellular recording. The class given is cell-based. As to the method:
In these experiments, postnatal day 14 to 35 male Sprague-Dawley rats were anesthetized and decapitated. Brains were removed and transferred to ice cold artificial cerebrospinal fluid (ACSF), comprising 124 mM NaCl, 5 mM KCl, 1.25 mM NaH2PO4, 1.5 mM MgSO4, and 26 mM NaHCO3, supplemented with 10 mM glucose), which was continuously bubbled with 95% O2 and 5% CO2. Transverse hippocampal slices (˜400 microns) were prepared on a Leica VT1000s vibratome (Wetzlar Germany). The slices were allowed to recover for 1 hour at room temperature and were then transferred to an interface recording chamber at 34° C. in ACSF with 7.5 mM [K^+]o. Extracellular recordings were made from the CA3 region with an Axioclamp 2B (Axon Instruments, Forest City, Calif.) using a glass microelectrode filled with 150 mM NaCl. Data were recorded and analyzed using PClamp8 (Axon Instruments).
Synchronized bursting was induced by incubating hippocampal slices in ACSF supplemented with to a final concentration of 7.5 mM [K^+]o, Baseline recordings were obtained after exposure to elevated [K^+]o for 1 hour and the burst frequency had stabilized.
The reduction in burst frequency is shown in graphical form in FIG. 7.
The effects of glucose deprivation on synchronized burst discharges were examined in rat hippocampal slices ex corpora using the methods described in Example 2. Spontaneous synchronized bursts were recorded in CA3 in ACSF containing 10 mM glucose supplemented with 7.5 mM [K^+]o for ˜1 hr, and then in glucose-free ACSF supplemented with 10 mM lactate or 10 mM pyruvate. […] The interburst interval increased to 24 seconds when the slice was exposed to glucose-free ACSF supplemented with 10 mM lactate, indicating an anticonvulsant effect of glucose deprivation.

For data set [2], the system named is kindled seizures evoked by perforant path stimulation. Description: Kindling model of temporal lobe epilepsy, perforant path stimulation. The class given is in vivo, rat. An excerpt: In the kindling model, repeated activation of neural pathways in vivo induces progressive electrographic and behavioral seizures, permanent increases in susceptibility to additional seizures, and eventually spontaneous seizures (Goddard et al., 1969, Experimental Neurology 25: 295-330; Pinel, 1978, Experimental Neurology 58: 190-202; Wada et al., 1975, Canadian Journal of Neurological Sciences 2: 477-492; Sayin et al. 2003, Journal of Neuroscience 23: 2759-2768). Kindling has become the most extensively studied experimental model of epilepsy (McNamara, 1999, Nature 399: A15-22). In a typical kindling protocol, periodic stimulation delivered once or twice daily gradually evokes an increasing synchronous electrical afterdischarge (AD) or electrographic seizure accompanied by a behavioral seizure. […] Kindling can be induced by electrical or chemical activation of a variety of neural pathways in a range of species that include amphibians, mammals, and primates (Morrell and Tsuru, 1976, Electroencephalography and Clinical Neurophysiology 40: 1-11); Wada and Mizoguchi, 1984; Epilepsia 25: 278-287). Because kindling induces permanent alterations in the brain and can be evoked in a range of species by a variety of stimuli, it has been regarded as a phenomenon of long-term brain plasticity as well as a model of temporal lobe epilepsy. The behavioral features of brief repeated kindled seizures evoked by limbic stimulation resemble human partial complex seizures with secondary generalization. In the early stages of limbic kindling in rodents, each stimulation evokes an AD accompanied by a brief partial seizure, which progresses to stimulus-evoked secondary generalized seizures. This feature is an example of the progressive functional alterations induced by kindling that are epileptogenic.
Adult male Sprague-Dawley rats (weighing between 250-350 g, obtained from Harlan, Madison, Wis.) were anesthetized with ketamine (80 mg/kg intramuscularly) and xylazine (10 mg/kg intramuscularly), and were stereotactically implanted with an insulated stainless steel bipolar electrode for stimulation and recording. The electrode was implanted in the perforant path (8.1 mm posterior, 4.4 mm lateral, 3.5 mm ventral with respect to bregma), and was fixed to the skull with acrylic. After a two-week recovery period following electrode placement, unrestrained, awake, implanted rats received twice-daily kindling stimulation (5 days per week) with a one-second train of 62-Hertz (Hz) biphasic constant current 1.0-millisecond (ms) square wave pulses to induce kindled seizures. The electroencephalogram was recorded from the bipolar electrode, which was switched to the stimulator for the delivery of kindling stimulation. On the first day of stimulation, each rat received a stimulus train of 500 microAmperes (μA). If an AD was evoked, this intensity was used in subsequent stimulations. If no AD was evoked, the stimulation intensity was increased in a sequence of 500, 700, 900, 1000, 1100, 1200, 1300 and 1400 μA until an AD was evoked. The intensity that initially evoked AD was used for subsequent stimulations. […] If AD was evoked by 3 consecutive stimulations at a given intensity, the stimulation intensity was then decreased by 100 μA decrements. At stimulation intensities below 500 μA, the intensity was decreased in 30 μA decrements. These stimulation procedures deliver stimulation at the lowest intensity required to evoke an AD (Sutula and Steward, 1986, Journal of Neurophysiology 56: 732-746; Cavazos et al., 1991, Journal of Neuroscience 11: 2795-2803).
The anticonvulsant and antiepileptic effects of 2-DG were confirmed in rats that experienced kindled seizures evoked by perforant path stimulation according to the protocol noted above. […]

In data set [3] the test system is neuropathic pain (mechanical allodynia). Description: Loose sciatic nerve ligation model of neuropathic pain, Von Frye filament test. In kind it is in vivo, rat. As to the method: The effects of 2-deoxy-D-glucose (2-DG), which has acute anticonvulsant properties in hippocampal slices and prevents the consequences of repeated evoked network synchronization in the kindling model of epilepsy, were evaluated for treatment of neuropathic pain. The effects of 2-DG were examined in the loose sciatic nerve ligation rat model of neuropathic pain. […] Effects of 2-DG on neuropathic pain were assessed by measurement of hindlimb withdrawal latency to mechanical stimulation and development of mechanical allodynia according to standardized methods.
Male Sprague-Dawley rats (Harlan, 250-350 g) were behaviorally tested by measuring hindlimb withdrawal latency in response to mechanical stimulation of the hindlimb with standardized Von Frye filaments of increasing diameter, in order to verify that all animals initially had normal responses prior to surgical procedures and treatments. In the Von Frye method, animals are placed on a wire mesh floor, and the hindlimb is stroked with standardized filaments of increasing diameter until withdrawal is observed. The size of the filament evoking withdrawal is the Von Frye score. Withdrawal to smaller filaments indicates hyperalgesia, or mechanical allodynia when normally innocuous filaments produce withdrawal, and are regarded as measures of pain. Baseline withdrawal scores were used to assess effects of sciatic ligation and treatment with 2-DG.
After obtaining baseline measurements, animals were then anesthetized with a combination of ketamine 70 mg/kg IP and xylazine […]. The sciatic nerve was exposed at mid-thigh level by blunt dissection through the biceps femoris muscles. […] The incision was closed in layers, and during the immediate post-operative period the animals were monitored for signs of behavior that would signify unexpected and undesirable reaction to the surgical procedure (loss of weight or appetite, lack of grooming or loss of locomotion).
Hindlimb withdrawal responses were assessed postoperatively to verify that mechanical allodynia and hyperalgesia were induced as a result of the surgical ligation. […]

In data set [1] (glucose-free ACSF with 10 mM substitute energy source, 7.5 mM [K+]o, baseline in 10 mM glucose ~3.8 seconds), `CC(O)C(=O)O` (stereo not drawn) [lactate] came in with an Interburst interval of 24 s.
Take `O=CC[C@@H](O)[C@H](O)[C@H](O)CO` [2-DG, 2-deoxy-D-glucose]: in data set [2] (250 mg/kg twice daily for 3 months, twice daily stimulation continued), the “Duration of anticonvulsant effects after stopping 2-DG” value is listed as “approximately 8 weeks”. In addition, the “Effective dose in rats” value in data set [2] (intraperitoneal or subcutaneous administration) is on record as 250 mg/kg. Further, the “Time AD threshold remained elevated after stopping twice daily 2-DG” value in data set [2] (kindled rat, 250 mg/kg IP) is reported as ≤ 6 weeks. In data set [2] (rats n=15 vs saline n=12, p<0.001 ANOVA, FIG. 2A), the “Effect on AD threshold compared to saline controls” value is given as “increased the AD threshold”. The “ADs to Class 4” value in data set [2] (rats, 2-DG 250 mg/kg IP 30 minutes before stimulation) is given as 20.9 +/− 4.0 ADs. The “ADs to Class 5 (first Class V generalized tonic clonic seizure)” value in data set [2] (rats, 2-DG 250 mg/kg IP 30 minutes before stimulation, n=11, p<0.03 vs saline) is 27.7±6.0 ADs and 27.7 +/− 6.0 ADs. In addition, in data set [2] (rats, 2-DG 250 mg/kg IP 30 minutes before stimulation, number of afterdischarges to reach seizure class), the “ADs to Class 3” value was 16.7 +/− 3.1 ADs. Further, the “AD threshold during repeated 2-DG administration” value in data set [2] (single kindled rat, 250 mg/kg IP, from 200 μA, about 2-3 weeks of twice daily stimulation) was ~1500 μA. Further, in data set [2] (single kindled rat, FIG. 3, 250 mg/kg IP, rose from ~200 μAmps during 2-3 weeks), the “AD threshold after restarting 2-DG” value is reported as 1500 μAmps. Also, the “Progressive reduction in AD threshold with repeated ADs” value in data set [2] (single rat, FIG. 3, 250 mg/kg IP prior to each stimulation, after the third evoked AD) was “appeared to prevent the progressive reduction in AD threshold”. Also, the “Burst frequency (epileptic bursts) after bath application” value in data set [1] (1 mM 2-DG, 7.5 mM [K+]o, FIG. 4B/4C) is “reduction in epileptic bursts; also recorded: decreased progressively”. Moreover, the “Persistence of anticonvulsant effect after return to ACSF without 2-DG” value in data set [1] (ACSF with 7.5 mM [K+]o, FIG. 5B) is ≤ 60 min. Besides, in data set [3] (250 mg/kg IP), the “Day of administration after which pain-reducing effects diminished or were extinguished” value is 4 to 5 days and 4 days; the “Motor or behavioral impairments” value is “did not result in any apparent motor or behavioral impairments”. In data set [3] (250 mg/kg IP 30 minutes prior to testing, n=10, p=0.044 day 1, p<0.001 day 2), the “Mechanical allodynia (Von Frye score) compared to saline” value is listed as “acutely reduced mechanical allodynia”.
With `O=C(O)CI` [iodoacetate, reference compound], the “Synchronized bursting in presence of iodoacetate” value in data set [1] (200 uM iodoacetate, ACSF with 10 mM glucose or 10 mM lactate, FIGS. 6 and 7) is given as “reduced synchronized bursting”. Further, the “Reduction in epileptic bursts with lactate as alternative energy source” value in data set [1] (iodoacetate, lactate provided, FIG. 7) is “persists”.
